{
  "source": "paper PMC11887051",
  "about": "“Discovery of ONO-2920632 (VU6011887): A Highly Selective and CNS Penetrant TREK-2 (TWIK-Related K+ Channel 2) Preferring Activator In Vivo Tool Compound” (ACS Chemical Neuroscience, 2025)",
  "key": {"rat PK study": {"experiment": "rat PK study", "assay_type": "in vivo", "settings": "plasma; for clearance: read-out: rat CLp; for Vd: read-out: rat Vss; for half-life: read-out: rat t1/2 (converted)"}, "TREK-2": {"target": "T1, TREK-2 (Homo sapiens, UniProt P57789)", "T1 sequence (P57789 1-538)": "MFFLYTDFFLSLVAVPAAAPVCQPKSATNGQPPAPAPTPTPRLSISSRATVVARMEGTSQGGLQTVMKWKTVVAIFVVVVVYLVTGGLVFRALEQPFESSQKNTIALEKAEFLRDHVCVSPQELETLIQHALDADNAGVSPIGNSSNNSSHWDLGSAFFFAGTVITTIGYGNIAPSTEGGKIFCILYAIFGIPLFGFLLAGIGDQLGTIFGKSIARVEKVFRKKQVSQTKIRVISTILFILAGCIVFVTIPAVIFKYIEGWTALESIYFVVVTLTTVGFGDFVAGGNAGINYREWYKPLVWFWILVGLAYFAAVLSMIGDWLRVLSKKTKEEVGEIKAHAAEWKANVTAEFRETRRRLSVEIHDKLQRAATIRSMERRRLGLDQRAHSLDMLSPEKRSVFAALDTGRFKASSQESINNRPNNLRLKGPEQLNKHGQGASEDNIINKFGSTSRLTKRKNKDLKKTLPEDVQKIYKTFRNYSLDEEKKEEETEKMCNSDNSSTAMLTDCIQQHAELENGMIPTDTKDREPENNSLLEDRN", "experiment": "TREK-2 thallium flux assay (hTREK-2/HEK)", "assay_type": "cell-based", "set-up": "expressed in transfected cells; host or cells: HEK293", "settings": "for Emax: % activation relative to 10 µM BL-1249; for Fold TREK-2: TREK-2 preference over TREK-1, thallium flux", "procedure": "Procedures for Biological Experiments\nTREK-1 and TREK-2 thallium flux assay protocol […]\nHEK293 cells stably expressing human TREK-2 (hTREK-2/HEK) were constructed at Ono. hTREK-1/CHO or hTREK-2/HEK were plated in 384-well plates at a density of 1.0x10^4 cells/well or 2.0x10^4 cells/well, respectively, and cultured overnight. After the wash by HBSS + 20 mM HEPES buffer, cells were loaded with Thallos dye for 1 hour at room temperature. After the wash […]\ndissolved with HBSS + 20mM HEPES buffer were added to each well. After 10 minutes incubation at room temperature, thallium stimulus buffer were added to each well and the fluorescent intensity are measured by Panoptic. The final thallium concentration was 0.36 mM in […]\nTREK-1 or 0.24 mM in TREK-2, respectively. […]"}, "mouse TREK-1": {"target": "T2, mouse TREK-1 (Mus musculus, UniProt P97438)", "T2 sequence (P97438 1-426)": "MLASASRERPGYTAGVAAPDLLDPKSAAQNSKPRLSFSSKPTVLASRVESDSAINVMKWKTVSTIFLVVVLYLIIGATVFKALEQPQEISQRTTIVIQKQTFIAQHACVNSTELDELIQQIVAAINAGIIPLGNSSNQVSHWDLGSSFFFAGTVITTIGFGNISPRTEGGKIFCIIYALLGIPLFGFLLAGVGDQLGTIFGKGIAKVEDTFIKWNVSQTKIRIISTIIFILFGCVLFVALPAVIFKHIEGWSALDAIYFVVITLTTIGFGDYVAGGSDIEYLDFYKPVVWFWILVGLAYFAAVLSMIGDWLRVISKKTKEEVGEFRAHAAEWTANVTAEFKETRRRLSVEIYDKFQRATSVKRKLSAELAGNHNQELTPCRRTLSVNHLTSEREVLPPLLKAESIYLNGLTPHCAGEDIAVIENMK", "experiment": "mouse TREK-1 MPC assay", "assay_type": "cell-based", "settings": "manual patch clamp"}, "TRESK": {"target": "T3, TRESK (Homo sapiens, UniProt Q7Z418)", "T3 sequence (Q7Z418 1-384)": "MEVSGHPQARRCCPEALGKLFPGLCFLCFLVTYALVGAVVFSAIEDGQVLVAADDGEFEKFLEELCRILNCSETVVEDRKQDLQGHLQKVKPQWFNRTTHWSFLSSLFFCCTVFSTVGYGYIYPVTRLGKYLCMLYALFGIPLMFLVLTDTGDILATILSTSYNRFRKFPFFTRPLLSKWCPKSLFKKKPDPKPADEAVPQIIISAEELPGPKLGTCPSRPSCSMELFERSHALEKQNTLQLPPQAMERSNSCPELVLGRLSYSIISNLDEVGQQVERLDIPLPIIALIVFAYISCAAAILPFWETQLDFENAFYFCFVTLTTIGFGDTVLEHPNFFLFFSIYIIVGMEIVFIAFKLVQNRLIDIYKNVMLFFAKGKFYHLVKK", "experiment": "human 86Rb flux K2P selectivity panel", "assay_type": "cell-based", "settings": "86Rb flux K2P panel; for activity at TRESK: data is not shown"}, "Potassium Channel [KATP]": {"system": "Potassium Channel [KATP]", "experiment": "Eurofins Lead Profiling radioligand binding", "set-up": "species or system Hamster", "settings": "title: 30 μM"}, "TASK-1": {"system": "TASK-1", "experiment": "human 86Rb flux K2P selectivity panel", "assay_type": "cell-based", "settings": "86Rb flux K2P panel"}, "Estrogen ERα": {"target": "Estrogen ERα (Homo sapiens, UniProt P03372)", "sequence (P03372 whole entry)": "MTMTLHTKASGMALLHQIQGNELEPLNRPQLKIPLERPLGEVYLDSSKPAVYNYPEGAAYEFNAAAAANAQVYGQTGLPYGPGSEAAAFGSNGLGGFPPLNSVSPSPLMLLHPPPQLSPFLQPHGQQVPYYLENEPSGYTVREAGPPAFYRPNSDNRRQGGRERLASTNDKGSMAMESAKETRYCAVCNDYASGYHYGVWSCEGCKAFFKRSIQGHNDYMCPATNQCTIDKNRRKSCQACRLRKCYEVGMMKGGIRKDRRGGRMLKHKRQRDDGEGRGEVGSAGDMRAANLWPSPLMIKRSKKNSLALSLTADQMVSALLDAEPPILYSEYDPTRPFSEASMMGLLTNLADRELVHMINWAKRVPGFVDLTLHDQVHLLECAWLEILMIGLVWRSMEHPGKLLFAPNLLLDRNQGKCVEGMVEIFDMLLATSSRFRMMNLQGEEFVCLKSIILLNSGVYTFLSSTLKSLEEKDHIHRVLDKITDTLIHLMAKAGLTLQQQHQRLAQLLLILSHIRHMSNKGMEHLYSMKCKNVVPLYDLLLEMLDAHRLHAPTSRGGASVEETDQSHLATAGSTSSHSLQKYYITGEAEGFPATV", "experiment": "Eurofins Lead Profiling radioligand binding", "settings": "title: 30 μM"}, "Histamine H3": {"target": "Histamine H3 (Homo sapiens, UniProt Q9Y5N1)", "sequence (Q9Y5N1 whole entry)": "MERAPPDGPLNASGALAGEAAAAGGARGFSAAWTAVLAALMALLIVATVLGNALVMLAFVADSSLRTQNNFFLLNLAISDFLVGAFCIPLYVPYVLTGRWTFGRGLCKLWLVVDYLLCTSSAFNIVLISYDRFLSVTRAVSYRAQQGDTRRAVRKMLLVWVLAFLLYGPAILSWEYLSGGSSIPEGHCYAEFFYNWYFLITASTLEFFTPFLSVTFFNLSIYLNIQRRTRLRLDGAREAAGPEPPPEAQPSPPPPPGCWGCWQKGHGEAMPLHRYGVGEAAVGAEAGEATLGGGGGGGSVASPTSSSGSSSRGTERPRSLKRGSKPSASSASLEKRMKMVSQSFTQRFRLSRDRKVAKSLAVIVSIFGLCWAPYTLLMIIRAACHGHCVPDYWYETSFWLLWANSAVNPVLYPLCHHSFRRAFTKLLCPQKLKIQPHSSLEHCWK", "experiment": "Eurofins Lead Profiling radioligand binding", "settings": "title: 30 μM"}, "TASK-3": {"system": "TASK-3", "experiment": "human 86Rb flux K2P selectivity panel", "assay_type": "cell-based", "settings": "86Rb flux K2P panel"}, "TASK-2": {"system": "TASK-2", "experiment": "human 86Rb flux K2P selectivity panel", "assay_type": "cell-based", "settings": "86Rb flux K2P panel"}, "TWIK-2": {"system": "TWIK-2", "experiment": "human 86Rb flux K2P selectivity panel", "assay_type": "cell-based", "settings": "86Rb flux K2P panel"}, "TRAAK": {"system": "TRAAK", "experiment": "human 86Rb flux K2P selectivity panel", "assay_type": "cell-based", "settings": "86Rb flux K2P panel"}, "[1]": {"settings": "Sprague-Dawley, intravenous, rat cassette PK study"}},
  "note": "Several values for one entry are separate records, joined by “and”; a condition that tells them apart may be missing. Identical values can stand only once. Entries after “also recorded” stand apart in the source; their conditions may differ. Like-named read-outs stand apart in the source and are kept apart here.",
  "data": [
    {"smiles": "CS(=O)(=O)Nc1ccc(C(=O)NCc2ccc(Cl)cc2Cl)cc1", "note": "[Compound 13]", "values": [
      {"measurement": "clearance", "setting": "rat PK study; rat PK profile", "value": 3.5, "unit": "mL/min/kg"},
      {"measurement": "Vd", "setting": "rat PK study; rat PK profile", "value": 0.787, "unit": "L/kg"},
      {"measurement": "half-life", "setting": "rat PK study; rat PK profile", "value": 3, "unit": "h"},
      {"measurement": "EC50", "setting": "TREK-2", "value": 3.2, "unit": "µM"},
      {"measurement": "Emax", "setting": "TREK-2", "value": 155, "unit": "%"},
      {"measurement": "Fold TREK-2", "setting": "TREK-2", "value": "~3", "unit": "fold"}
    ]},
    {"smiles": "O=C(NCc1ccc(Br)cc1Cl)c1ccc(-c2ncn[nH]2)cc1", "note": "[Compound 14a]", "values": [
      {"measurement": "EC50", "setting": "mouse TREK-1", "value": 1.9, "unit": "µM"},
      {"measurement": "Emax", "setting": "mouse TREK-1", "value": 94, "unit": "%"},
      {"measurement": "clearance", "setting": "rat PK study; [1]", "value": 20.5, "unit": "mL/min/kg"},
      {"measurement": "Vd", "setting": "rat PK study; [1]", "value": 1.5, "unit": "L/kg"},
      {"measurement": "half-life", "setting": "rat PK study; [1]", "value": 1.1, "unit": "h"},
      {"measurement": "EC50", "setting": "TREK-2", "value": 0.73, "unit": "µM"},
      {"measurement": "Emax", "setting": "TREK-2", "value": 183, "unit": "%"}
    ]},
    {"smiles": "Cc1cc(OC(F)(F)F)ccc1CNC(=O)c1ccc2ncnn2c1", "note": "[Compound 19a]", "values": [
      {"measurement": "EC50", "setting": "mouse TREK-1", "value": 5, "unit": "µM"},
      {"measurement": "Emax", "setting": "mouse TREK-1", "value": 106, "unit": "%"},
      {"measurement": "EC50", "setting": "TREK-2", "value": 0.15, "unit": "µM"},
      {"measurement": "Emax", "setting": "TREK-2", "value": 160, "unit": "%"},
      {"measurement": "Fold TREK-2", "setting": "TREK-2", "value": 25.3, "unit": "fold"}
    ]},
    {"smiles": "O=C(NCc1ccc(OC(F)(F)F)cc1F)c1ccc2ncnn2c1", "note": "[Compound 19b]", "values": [
      {"measurement": "EC50", "setting": "mouse TREK-1", "value": 2.7, "unit": "µM"},
      {"measurement": "Emax", "setting": "mouse TREK-1", "value": 109, "unit": "%"},
      {"measurement": "selectivity against TRESK over TREK-2", "setting": "TRESK", "value": 31, "unit": "fold"},
      {"measurement": "activity at TRESK", "setting": "TRESK", "value": "micromolar inhibitor activity"},
      {"measurement": "% Inhibition at 10 µM", "setting": "Potassium Channel [KATP]", "value": 13, "unit": "%"},
      {"measurement": "selectivity against TASK-1 over TREK-2", "setting": "TASK-1", "value": "> 150", "unit": "fold"},
      {"measurement": "inhibition", "setting": "Estrogen ERα", "value": 1, "unit": "%"},
      {"measurement": "inhibition", "setting": "Histamine H3", "value": 1, "unit": "%"},
      {"measurement": "selectivity against TASK-3 over TREK-2", "setting": "TASK-3", "value": "> 150", "unit": "fold"},
      {"measurement": "selectivity against TASK-2 over TREK-2", "setting": "TASK-2", "value": "> 150", "unit": "fold"},
      {"measurement": "EC50", "setting": "TREK-2", "value": 0.3, "unit": "µM"},
      {"measurement": "Emax", "setting": "TREK-2", "value": 184, "unit": "%"},
      {"measurement": "Fold TREK-2", "setting": "TREK-2", "value": 9.3, "unit": "fold"},
      {"measurement": "selectivity against TWIK-2 over TREK-2", "setting": "TWIK-2", "value": "> 150", "unit": "fold"},
      {"measurement": "selectivity against TRAAK over TREK-2", "setting": "TRAAK", "value": "> 150", "unit": "fold"}
    ]},
    {"smiles": "O=C(NCc1ccc(OC(F)(F)F)cc1Cl)c1ccc2nncn2c1", "note": "[Compound 20]", "values": [
      {"measurement": "activity at TRESK", "setting": "TRESK", "value": "micromolar inhibitor activity; also recorded: micromolar inhibitory activity"},
      {"measurement": "selectivity against TASK-1 over TREK-1/2", "setting": "TASK-1", "value": "> 91 fold and > 85 fold"},
      {"measurement": "selectivity against TASK-3 over TREK-1/2", "setting": "TASK-3", "value": "> 91 fold and > 85 fold"},
      {"measurement": "selectivity against TASK-2 over TREK-1/2", "setting": "TASK-2", "value": "> 91 fold and > 85 fold"},
      {"measurement": "selectivity against TWIK-2 over TREK-1/2", "setting": "TWIK-2", "value": "> 91 fold and > 85 fold"},
      {"measurement": "selectivity against TRAAK over TREK-1", "setting": "TRAAK", "value": "85 fold and > 85 fold"}
    ]}
  ]
}
